The values that follow come from PubChem BioAssay (NCI).

What all share (experiment): inhibition of tumour cell growth, NCI panel, 48 h
The test system of experiment [1] is SK-MEL-28 melanoma.
In experiment [2] the test system is NCI-H522 lung.
Experiment [3] deals with M14 melanoma.
For experiment [4], the system named is HL-60(TB) leukemia.
Experiment [5] concerns TK-10 renal.
In experiment [6] the test system is U251 CNS.
For experiment [7], the system named is SNB-75 CNS.
The subject of experiment [8] is SN12C renal.
Experiment [9] concerns UACC-62 melanoma.
The subject of experiment [10] is SF-539 CNS.
For experiment [11], the system named is HOP-62 NSCLC.
Experiment [12] deals with HT29 colon.
Experiment [13] has as its system HCT-15 colon.
Experiment [14] has as its system K-562 leukemia.
Experiment [15] deals with MOLT-4 leukemia.
Experiment [16] deals with MDA-MB-231 breast.

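These data come from cells grown in 96-well plates and exposed to compound for 48 hours at five concentrations. Definition used: TGI = concentration required for complete inhibition of growth.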

Take `COc1cc2c(cc1OC)[C@H]1C(COC(=O)c3ccccc3)CSC(=Nc3ccccc3)N1CC2` (stereo partly specified): the TGI was more than 100 µM in [1]; 6.08 µM in [2]; more than 100 µM in experiment [3]; more than 100 µM in [4]; more than 100 µM in [5]; more than 100 µM in experiment [6]. The TGI in [7], in experiment [8], in experiment [9], in experiment [10], in experiment [11] and in experiment [12] was more than 100 µM each time. In experiment [13], this compound returned a TGI of more than 100 µM.

Consider `CC(O)c1ccc[n+](Cc2ccccc2)c1` (stereo unspecified), for which the TGI in experiment [1], in [2], in experiment [4], in [5], in experiment [6] and in experiment [8] was more than 400 µM each time. Also, the TGI in experiment [9], in experiment [10], in [14], in experiment [15], in experiment [11] and in experiment [12] was more than 400 µM in each case. This compound also came in with a TGI in experiment [13] of more than 400 µM.

On to `COc1cccc(-c2nc3ccccc3c(=O)[nH]2)c1OC`, for which the TGI in [3], in experiment [6], in experiment [7], in experiment [8], in experiment [9] and in [16] was more than 100 µM in each case. The TGI in experiment [15], in experiment [11], in experiment [12] and in experiment [13] was more than 100 µM each time.

As to `CCCCCCCCCCCCCCCCOCC(CP(=O)([O-])OCC[n+]1ccccc1)OC` (stereo unspecified), the TGI in experiment [1] is 32.2 µM; in [2], 39.5 µM; in [3] it was 17.9 µM; in [4], 5.19 µM; in experiment [5] it was 8.09 µM; in experiment [7], 22.3 µM. The TGI came to 24.9 µM in [8]; 24.5 µM in experiment [9]; 28.4 µM in experiment [10]; 32.8 µM in experiment [14]; 18.9 µM in experiment [15]; 25.2 µM in [11]. In addition, the TGI in experiment [12] amounted to 15.9 µM.

On to `Cc1ccc(C2SC(N)=Nc3c2c(C)nn3C(=O)c2ccccc2O)cc1` (stereo unspecified), for which the TGI in experiment [1] is more than 10 µM; in [3], more than 10 µM; in experiment [5] it was more than 10 µM; in experiment [6], more than 10 µM; in experiment [7], 7.14 µM; in [8], more than 10 µM. Further, the TGI in experiment [9] was 4.27 µM; in [16], more than 10 µM; in experiment [10], more than 10 µM; in experiment [14], more than 10 µM; in [15] it was more than 10 µM; in experiment [11] it was more than 10 µM. For the same compound, the TGI in [12] and in [13] was more than 10 µM throughout.

With `COc1c(Br)cc(/C=C(\C#N)c2cccnc2)cc1Br`, the TGI in experiment [1], in [2], in experiment [3], in experiment [4], in experiment [5] and in [6] was more than 100 µM each time. Further, the TGI in experiment [7], in experiment [8], in experiment [9], in experiment [10], in [14] and in [15] was more than 100 µM throughout. Moreover, the TGI in experiment [11], in [12] and in experiment [13] was more than 100 µM throughout.

Regarding `N#CCCN(c1ccc(C=Nc2ccccc2Cl)cc1)S(=O)(=O)c1ccccc1`, the TGI in experiment [1], in [2], in experiment [3], in experiment [4], in experiment [5] and in experiment [6] was more than 100 µM in each case. Also, the TGI in experiment [7], in experiment [8], in experiment [9], in experiment [10], in [14] and in experiment [15] was more than 100 µM throughout. Also, the TGI in experiment [11], in experiment [12] and in [13] was more than 100 µM in each case.

In the case of `CC1=NN(C(=O)CC(=O)NC(=O)CC(=O)Nc2ccccc2F)C(=O)C1N=Nc1ccc([N+](=O)[O-])cc1` (stereo unspecified), the TGI in [1] is more than 100 µM; in [3], more than 100 µM; in [5] it was more than 100 µM; in experiment [6], 50 µM; in [7], 98.2 µM; in [8], more than 100 µM. For the same compound, the TGI is more than 100 µM in experiment [9]; more than 100 µM in experiment [10]; 65.4 µM in [14]; 77.7 µM in experiment [15]; more than 100 µM in experiment [11]; 45.9 µM in experiment [12]. Also, in experiment [13], the TGI was more than 100 µM.

In the case of `COC(=O)[C@@H](NC(=O)N(CCC#N)CCCN(C(=O)N[C@H](Cc1ccccc1)C(=O)OC)c1ccccc1)C(C)C`, the TGI in experiment [1], in experiment [2], in experiment [3], in experiment [5], in [6] and in [7] was more than 100 µM each time. Besides, the TGI in [8], in experiment [9], in experiment [16], in experiment [10], in experiment [15] and in [11] was more than 100 µM in each case. In experiment [13], this compound gave a TGI of more than 100 µM.

Consider `Cn1ccc2c(C(=O)c3ccccc3)cccc2c1=O`, for which the TGI was more than 100 µM in [1]; 81.1 µM in [2]; more than 100 µM in [3]; 88.9 µM in experiment [4]; more than 100 µM in experiment [5]; 72.3 µM in experiment [7]. The TGI in experiment [8] is more than 100 µM; in experiment [9], more than 100 µM; in experiment [10] it was more than 100 µM; in [15], more than 100 µM; in experiment [11] it was 93.7 µM; in [12], more than 100 µM. For the same compound, the TGI in experiment [13] was more than 100 µM.

Consider `O=C(O)CCc1cccc2c1oc1c(CCC(=O)O)cccc12`, for which the TGI in experiment [1], in [2], in experiment [3], in experiment [4], in [5] and in [6] was more than 100 µM throughout. Further, the TGI in [7], in experiment [8], in experiment [9], in experiment [10], in experiment [14] and in [15] was more than 100 µM in each case. In addition, the TGI in experiment [12] and in experiment [13] was more than 100 µM each time.

As to `CC(=O)C(CN(Cc1ccccc1)Cc1ccccc1)C(c1ccccc1)c1c(O)c2ccccc2oc1=O` (stereo unspecified), the TGI in experiment [2], in experiment [3], in [4], in [5], in experiment [6] and in [7] was more than 100 µM each time. Besides, the TGI in experiment [8], in experiment [9], in experiment [10], in experiment [14], in experiment [11] and in experiment [12] was more than 100 µM each time. For the same compound, the TGI in [13] is more than 100 µM.

On to `Cc1ccc(/C=C2\CN(C)CC3C2=NN(c2ccccc2)C3c2ccc(C)cc2)cc1` (stereo unspecified), for which the TGI in experiment [1], in experiment [2], in experiment [3], in [5], in [6] and in experiment [8] was more than 100 µM throughout. Further, the TGI in [9], in experiment [16], in experiment [14], in experiment [15], in experiment [11] and in experiment [12] was more than 100 µM in each case. This compound yielded a TGI in [13] of more than 100 µM.

As to `COC(=O)NC12CC3CC(CC(F)(C3)C1)C2`, the TGI in [1], in [2], in experiment [3], in [4], in experiment [5] and in experiment [6] was more than 100 µM each time. Besides, the TGI in experiment [7], in [9], in experiment [10], in [14], in experiment [15] and in experiment [11] was more than 100 µM each time. Moreover, the TGI in experiment [12] was more than 100 µM.

Regarding `CC(C)C(Sc1nc(-c2ccccc2)c(-c2ccccc2)[nH]1)C(=O)NN` (stereo unspecified), the TGI in experiment [1], in [2], in [3], in experiment [4], in [5] and in [6] was more than 100 µM in each case. For the same compound, the TGI in experiment [7], in experiment [8], in experiment [10], in experiment [15], in experiment [11] and in experiment [12] was more than 100 µM throughout. For the same compound, in experiment [13], the TGI is more than 100 µM.

With `CN(C)CC1CCCC(CN(C)C)C1=NOC(=O)c1ccccc1` (stereo unspecified), the TGI in [1], in experiment [2], in [3], in [4], in [5] and in experiment [6] was more than 100 µM in each case. The TGI in experiment [7], in experiment [8], in experiment [9], in experiment [10], in experiment [14] and in experiment [15] was more than 100 µM throughout. The TGI in [11], in [12] and in experiment [13] was more than 100 µM throughout.

On to `COc1ccc(C2=NN(C(N)=S)C(c3ccccc3)C2)cc1` (stereo unspecified), for which the TGI in [1] is more than 100 µM; in [2], 84.1 µM; in [3], more than 100 µM; in experiment [4], 52.9 µM; in [5], more than 100 µM; in experiment [6], more than 100 µM. In addition, the TGI in [7] is 87.5 µM; in experiment [8], more than 100 µM; in experiment [9], more than 100 µM; in experiment [10] it was more than 100 µM; in experiment [14], more than 100 µM; in experiment [15], more than 100 µM. For the same compound, the TGI in experiment [11], in experiment [12] and in experiment [13] was more than 100 µM in each case.

With `COc1ccc(N2C(=O)C3c4[nH]c5ccccc5c4C4CC(C)CC(C)C4C3C2=O)cc1` (stereo unspecified), the TGI in experiment [1], in experiment [2], in experiment [3], in experiment [4], in [6] and in experiment [7] was more than 100 µM each time. The TGI in [8], in [9], in [10], in experiment [14], in experiment [15] and in [11] was more than 100 µM throughout. In addition, the TGI in [12] and in experiment [13] was more than 100 µM in each case.

With `COc1ccc2c(c1)Oc1cc(O)ccc1[C@@H]2c1ccccc1C(=O)NC(C)c1ccccc1` (stereo partly specified), the TGI in [1] amounted to 31.3 µM; in [2], 33.4 µM; in [3], 24.6 µM; in experiment [4] it was 34.5 µM; in experiment [5], 50.7 µM; in experiment [6], 28.8 µM. Moreover, the TGI in experiment [7] is 36.3 µM; in [8], 28.6 µM; in [9] it was 28.2 µM; in experiment [10], 31 µM; in experiment [14], more than 100 µM; in experiment [15], 36.2 µM. Besides, the TGI in experiment [11] amounted to 35.8 µM; in experiment [12], 34 µM; in [13], 34.6 µM.

As to `COC(=O)CN1SC2(SC13C(C)(C)C(=O)C3(C)C)C(C)(C)C(=O)C2(C)C`, the TGI in experiment [1], in experiment [3], in experiment [5], in [6], in [7] and in experiment [8] was more than 100 µM throughout. The TGI in [9], in experiment [16], in experiment [10], in experiment [14], in experiment [15] and in experiment [11] was more than 100 µM in each case. In addition, the TGI in experiment [12] and in [13] was more than 100 µM each time.
